# Data: patent US9499493B2, “2,4-pyrimidinediamine compounds and their uses” (Rigel Pharmaceuticals, Inc., priority 2002, dated 2016)
# pIC50: −log10 of the molar value. Counter-ions that a name gives are not always drawn.
# Tests used:
# [1] = system: cultured human mast cells (CHMC); assay: CHMC low cell density IgE activation: tryptase assay; assay type: cell-based; conditions: anti-IgE
# Summary of the method: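 CHMC resuspended in pre-warmed MT buffer at 1000-1500 cells/well (donor-dependent) and preincubated 1 hr at 37° C, then stimulated with anti-IgE for 30 min at 37° C; unstimulated wells got MT alone. Supernatant tryptase activity read with tryptase substrate after 30 min at room temperature.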
# [2] = system: cultured human mast cells (CHMC); assay: CHMC low cell density ionomycin activation: tryptase assay; assay type: cell-based
Structure (SMILES),pIC50 [1],pIC50 [2],pIC50 ([1]; Dihydrochloride Salt),pIC50 ([2]; Acetic Acid Salt)
"O=C(COc1cccc(Nc2ncc(F)c(Nc3cccc(O)c3)n2)c1)NCC(O)CO (stereo not drawn) [R926746, 5-Fluoro-N4-(3-hydroxyphenyl)-N2-[3-(N-2,3-dihydroxypropylamino)carbonylmethyleneoxyphenyl]-2,4-pyrimidinediamine]",6.00,< 5.00,,
"NC(=O)COc1cccc(Nc2ncc(F)c(Nc3ccc4c(c3)OCCO4)n2)c1 [R926747, N2-(3-Aminocarbonylmethyleneoxyphenyl)-N4-(3,4-ethylenedioxyphenyl)-5-fluoro-2,4-pyrimidinediamine]",6.67,< 5.00,,
"CNC(=O)COc1cc(Nc2ncc(F)c(Nc3ccc4cc[nH]c4c3)n2)ccc1OC [R926752, 5-Fluoro-N4-[(1H)-indol-6-yl]-N2-[4-methoxy-3-[(N-methylamino)carbonylmethyleneoxy]phenyl]-2,4-pyrimidinediamine]",6.47,< 5.00,,
"CNC(=O)COc1cccc(Nc2ncc(F)c(Nc3cccc(B(O)O)c3)n2)c1 [R926754, 5-Fluoro-N4-(3-dihydroxyborylphenyl)-N2-[3-[(N-methylamino)carbonylmethyleneoxy]phenyl]-2,4-pyrimidinediamine]",6.41,< 5.00,,
"CNC(=O)COc1cc(Nc2ncc(F)c(Nc3ccc(C)c(O)c3)n2)ccc1C [R926759, 5-Fluoro-N4-(3-hydroxy-4-methylphenyl)-N2-[4-methyl-3-[(N-methylamino)carbonylmethyleneoxy]phenyl]-2,4-pyrimidinediamine]",6.16,< 5.00,,
"CNC(=O)COc1cc(Nc2ncc(F)c(Nc3ccc(C)c(OCC(=O)NC)c3)n2)ccc1C [R926760, 5-Fluoro-N2,N4-bis[4-methyl-3-[(N-methylamino)carbonylmethyleneoxy]phenyl]-2,4-pyrimidinediamine]",5.54,< 5.00,,
"CC(C)(CO)NC(=O)COc1cccc(Nc2ncc(F)c(Nc3ccc4c(c3)OCCO4)n2)c1 [R926764, N4-(3,4-Ethylenedioxyphenyl)-5-fluoro-N2-[3-(N-2-hydroxy-1,1-dimethylethylamino)carboxymethyleneoxyphenyl]-2,4-pyrimidinediamine]",6.60,5.25,,
"O=C(COc1cccc(Nc2ncc(F)c(Nc3ccc4c(c3)OCCO4)n2)c1)NC1CCCCC1 [R926765, N2-[3-(N-Cyclohexylamino)carbonylmethyleneoxyphenyl]-N4-(3,4-ethylenedioxyphenyl)-5-fluoro-2,4-pyrimidinediamine]",6.49,5.36,,
"CN(CCO)C(=O)COc1cccc(Nc2ncc(F)c(Nc3ccc4c(c3)OCCO4)n2)c1 [R926766, N4-(3,4-Ethylenedioxyphenyl)-5-fluoro-N2-[3-[N-methyl-N-(2-hydroxyethyl)amino]carbonylmethyleneoxyphenyl]-2,4-pyrimidinediamine]",6.12,< 5.00,,
"Oc1cccc(Nc2nc(Nc3ccc4oc(CN5CCNCC5)cc4c3)ncc2F)c1 [R926769, 5-Fluoro-N4-(3-hydroxyphenyl)-N2-[2-(N-piperazinomethylene)benzofuran-5-yl]-2,4-pyrimidinediamine Dihydrochloride Salt]",,< 5.00,5.97,
"CCOC(=O)COc1cccc(Nc2nc(Nc3ccc4c(c3)OCCO4)ncc2F)c1 [R926774, N4-(3-Ethoxycarbonylmethyleneoxyphenyl)-N2-(3,4-ethylenedioxyphenyl)-5-fluoro-2,4-pyrimidinediamine]",5.71,5.10,,
"CCOC(=O)COc1cccc(Nc2nc(Nc3cccc(O)c3)ncc2F)c1 [R926775, N4-(3-Ethoxycarbonylmethyleneoxyphenyl)-5-fluoro-N2-(3-hydroxyphenyl)-2,4-pyrimidinediamine]",5.46,< 5.00,,
"CNC(=O)COc1cccc(Nc2nc(Nc3ccc4c(c3)OCCO4)ncc2F)c1 [R926776, N2-(3,4-Ethylenedioxyphenyl)-5-fluoro-N4-[3-(N-methylamino)carbonylmethyeleneoxyphenyl]-2,4-pyrimidinediamine]",6.09,< 5.00,,
"O=C(COc1cccc(Nc2ncc(F)c(Nc3ccc4c(c3)OCCO4)n2)c1)N(CCO)CCO [R926781, N2-[3-[N,N-Bis-(2-hydroxyethylamino)]carbonylmethyleneoxyphenyl]-N4-(3,4-ethylenedioxyphenyl)-5-fluoro-2,4-pyrimidinediamine]",6.24,< 5.00,,
"O=C(COc1cccc(Nc2ncc(F)c(Nc3ccc4c(c3)OCCO4)n2)c1)NC(CO)CO [R926784, N2-[3-(N-1,3-Dihydroxy-2-propylamino)carbonylmethyleneoxyphenyl]-N4-(3,4-ethylenedioxyphenyl)-5-fluoro-2,4-pyrimidinediamine]",6.60,< 5.00,,
"O=C1OCc2ccc(Nc3ncc(F)c(Nc4ccc5c(c4)OCCO5)n3)cc21 [R926786, N2-(1,1-Dihydroisobenzofuran-1-one-6-yl)-N4-(3,4-ethylenedioxyphenyl)-5-fluoro-2,4-pyrimidinediamine]",6.30,< 5.00,,
"CNC(=O)COc1cccc(Nc2ncc(F)c(Nc3ccc4c(c3)OCCO4)n2)c1 [R926826, N4-(3,4-Ethylenedioxyphenyl)-5-fluoro-N2-[3-(N-methylamino)carbonylmethyleneoxyphenyl]-2,4-pyrimidinediamine Trifluoro Acetic Acid Salt]",6.21,,,< 5.00

# Now from value to compound, other results behind:
pIC50 [1],pIC50 [2],pIC50 ([1]; Dihydrochloride Salt),Structure (SMILES),pIC50 ([2]; Acetic Acid Salt)
5.86,< 5.00,,"Oc1cccc(Nc2ncc(F)c(Nc3ccc4c(c3)OC(F)(F)O4)n2)c1 [R926794, N4-(3,4-Difluoromethylenedioxyphenyl)-5-fluoro-N2-(3-hydroxyphenyl)-2,4-pyrimidinediamine]",
5.69,< 5.00,,"CCOC(=O)COc1cccc(Nc2ncc(F)c(Nc3cc(OC)cc(OC)c3)n2)c1 [R926795, N4-(3,5-Dimethoxyphenyl)-N2-(3-ethoxycarbonylmethyleneoxyphenyl)-5-fluoro-2,4-pyrimidinediamine]",
6.04,< 5.00,,"CNC(=O)COc1cccc(Nc2ncc(F)c(Nc3cc(OC)cc(OC)c3)n2)c1 [R926796, N4-(3,5-Dimethoxyphenyl)-5-fluoro-N2-[3-(N-methylamino)carbonylmethyleneoxyphenyl]-2,4-pyrimidinediamine]",
5.65,< 5.00,,"CCOC(=O)COc1cccc(Nc2ncc(C(=O)OCC)c(Nc3ccc4c(c3)OCCO4)n2)c1 [R926797, N4-(3,4-Ethylenedioxyphenyl)-N2-(3-ethoxycarbonylmethyleneoxyphenyl)-5-ethoxycarbonyl-2,4-pyrimidinediamine]",
5.63,5.23,,"CCOC(=O)COc1cccc(Nc2ncc(C(=O)OCC)c(Nc3cccc(O)c3)n2)c1 [R926798, N4-(3-Hydroxyphenyl)-N2-(3-ethoxycarbonylmethyleneoxyphenyl)-5-ethoxycarbonyl-2,4-pyrimidinediamine]",
< 5.00,< 5.00,,"CCOC(=O)COc1cccc(Nc2ncc(C(=O)OCC)c(Nc3ccc4c(c3)OC(F)(F)C(F)(F)O4)n2)c1 [R926799, N2-(3-Ethoxycarbonylmethyleneoxyphenyl)-5-ethoxycarbonyl-N4-(3,4-tetrafluoroethylenedioxyphenyl)-2,4-pyrimidinediamine]",
5.34,< 5.00,,"CCOC(=O)c1cnc(Nc2cccc(OCC(=O)NC)c2)nc1Nc1ccc2c(c1)OCCO2 [R926800, 5-Ethoxycarbonyl-N4-(3,4-ethylenedioxyphenyl)-N2-[3-(N-methylamino)carbonylmethyleneoxyphenyl]-2,4-pyrimidinediamine]",
5.00,< 5.00,,"CCOC(=O)c1cnc(Nc2cccc(OCC(=O)NC)c2)nc1Nc1cc(OC)cc(OC)c1 [R926801, N4-(3,5-Dimethoxyphenyl)-5-ethoxycarbonyl-N2-[3-(N-methylamino)carbonylmethyleneoxyphenyl]-2,4-pyrimidinediamine]",
5.80,5.15,,"CCOC(=O)COc1cccc(Nc2nc(Nc3cc(OC)cc(OC)c3)ncc2F)c1 [R926804, N2-(3,5-Dimethoxyphenyl)-N4-(3-ethoxycarbonylmethyleneoxyphenyl)-5-fluoro-2,4-pyrimidinediamine]",
6.12,< 5.00,,Fc1cnc(Nc2cccc(C(F)(F)F)c2)nc1Nc1ccc2c(c1)OCCO2 [R926805],
6.11,5.52,,"CCOC(=O)COc1cccc(Nc2ncc(F)c(Nc3ccc(-n4cnc(Cl)c4Cl)cc3)n2)c1 [R926809, N4-[4-(4,5-Dichloro-1H-imidazol-1-yl)phenyl]-5-fluoro-N2-(3-ethoxycarbonylmethyleneoxyphenyl)-2,4-pyrimidinediamine]",
5.91,< 5.00,,"CNC(=O)COc1cccc(Nc2nc(Nc3cc(OC)cc(OC)c3)ncc2F)c1 [R926810, N2-(3,5-Dimethoxyphenyl)-N4-[3-(N-methylamino)carbonylmethyleneoxyphenyl)-5-fluoro-2,4-pyrimidinediamine]",
5.44,< 5.00,,"O=C(COc1cccc(Nc2ncc(F)c(Nc3ccc4c(c3)OCCO4)n2)c1)NCCOC(=O)CCCCC1SCC2NC(=O)NC21 (stereo not drawn) [R926811, N4-(3,4-Ethylenedioxyphenyl)-5-fluoro-N2-[3-[N-2-(D)-(+)-biotinylethylamino]carbonylmethyleneoxyphenyl]-2,4-pyrimidinediamine]",
6.73,< 5.00,,"CNC(=O)COc1cccc(Nc2ncc(F)c(Nc3ccc(-n4cnc(Cl)c4Cl)cc3)n2)c1 [R926812, N4-[4-(4,5-Dichloro-1H-imidazol-1-ylphenyl)]-5-fluoro-N2-[3-(N-methylamino)carbonylmethyleneoxyphenyl]-2,4-pyrimidinediamine]",
5.93,< 5.00,,CNC(=O)c1cc2cccc(Nc3ncc(F)c(Nc4ccc5c(c4)OCCO5)n3)c2[nH]1 [R926815],
5.96,< 5.00,,"CCOc1ccc(Nc2nc(Nc3cccc(OCC(=O)NC)c3)ncc2F)cc1 [R926827, N4-(4-Ethoxyphenyl)-5-fluoro-N2-[3-(N-methylamino)carbonylmethyleneoxyphenyl]-2,4-pyrimidinediamine]",
